Results on 1 compound are retold here after patent US12673052B2, “Combinations for the treatment of cancer” (Exelixis, Inc., priority 2020, dated 2026).

pEC50, pIC50: −log10 of the molar value.

For one data set, the target named is T1, MET (Homo sapiens, UniProt P08581, DEL964-1010).
T1 construct: endogenous in cells; host or cells: Hs 746T gastric carcinoma cells
Briefly: Endogenous phosphorylated MET in Hs 746T gastric carcinoma cells (MET exon 14 skip-splice mutation). Format: cell-based. Conditions: MET (Hs 746T), no ligand; read-out: Cellular IC50. The protocol:
The activity of Compound 1 was evaluated in cell-based assays that assessed the mechanistic effects of the compound in tumor and normal cells. Consistent with the biochemical data, Compound 1 is a potent inhibitor of cellular RTKs as assessed by analysis of receptor autophosphorylation as measured by enzyme-linked immunosorbent assay. Assays were performed using cell lines (PC-3, HUVEC, and A-172) stimulated with ligands to their respective receptors to induce autophosphorylation (MET, VEGFR2, and AXL) or a cell line (293A) transfected with an expression vector encoding the receptor of interest (MER). Inhibition of endogenous phosphorylated MET by Compound 1 in Hs 746T gastric carcinoma cells was also investigated due to the presence of the skip-splice mutation of exon 14 in the MET gene. This MET exon 14 alteration leads to increased MET stability and oncogenic activation, including constitutive MET phosphorylation. Also this mutation is known to occur in 3% of lung adenocarcinoma patients and to be sensitive to MET-targeted therapies (Frampton et al 2015).

In another data set the test system is MDA-MB-231. Briefly: Tumor growth inhibition in xenograft model. The format is in vivo, NSG mice. The protocol: Three human tumor cell lines, NCI-H441, MDA-MB-231, and SNU-5, were selected for use in tumor xenograft studies using athymic nude, NSG and CB.17 SCID mice, respectively. Pharmacodynamic modulation of MET phosphorylation was also measured in the NCI-H441 and SNU-5 xenografts. Tumor-bearing mice were orally dosed once-daily for 14 days (qd×14), and the tumors were resected and processed for MET phosphorylation analysis by Western blot. […]

In the next data set the target is BCRP (Homo sapiens, UniProt Q9UNQ0). Nature of the data set: Transporter interaction study (substrate and inhibition). Format: in vitro ADME. The protocol: (§1) Plasma PK of Compound 1 was characterized in rats and beagle dogs. Toxicokinetic (TK) evaluations of oral Compound 1 were evaluated in repeat-dose studies in rats and dogs. Plasma protein binding was determined in mouse, rat, dog, monkey, and human plasma in vitro. Biotransformation and metabolite profiling of Compound 1 were investigated in vitro using mouse, rat, dog, monkey, and human liver microsomal fractions and hepatocytes and in vivo in rats and dogs. P-glycoprotein (P-gp) and breast cancer resistance protein (BCRP) transporter interaction studies, in vitro experiments evaluating cytochrome P450 (CYP) induction and inhibition by Compound 1, and CYP and glucuronosyltransferase (UGT) substrate specificity studies of Compound 1 were also performed.

The target in another data set is P-gp (Homo sapiens, UniProt P08183). The data set is described as above. The format is in vitro ADME. The protocol:
as §1

The subject of the next data set is CYP2B6. Nature of the data set: Cytochrome P450 induction (mRNA levels) in fresh primary human hepatocytes. The format is in vitro ADME.
For a further data set, the system named is CYP2C9. The description is as above. Format: in vitro ADME.
A short description of data set [1]: Hepatocyte stability assay. The format is in vitro ADME, mouse. The settings on record: hepatocytes. As to the method: In the liver microsomal stability assay, CLint was 0.601 mL/min/g liver in mouse, 0.563 mL/min/g liver in rat, 0.315 mL/min/g liver in dog, 0.734 mL/min/g liver in monkey, and 0.639 mL/min/g liver in human. In the hepatocyte stability assay, Compound 1 CLint was 0.373 mL/min/g liver in mouse, 0.285 mL/min/g liver in rat, 1.08 mL/min/g liver in dog, 0.533 mL/min/g liver in monkey, and 0.317 mL/min/g liver in human.

The next data set has as its system bacterial. Nature of the data set: In vitro bacterial genotoxicity bioassay. Format: cell-based. The protocol: The nonclinical toxicity of Compound 1 was characterized in dose range-finding 7-day and definitive 28-day repeat-dose studies in rats and dogs, and in in vitro bacterial and mammalian genotoxicity bioassays. Compound 1 was also evaluated in definitive neurobehavioral, respiratory and cardiovascular safety pharmacology studies.
Compound 1 was negative in in vitro bacterial and mammalian cell genotoxicity bioassays.

Setting [2] is: human, fresh primary human hepatocytes, mRNA induction, read-out: half-maximal effective concentration (EC50).

BCRP, sequence (Q9UNQ0 whole entry): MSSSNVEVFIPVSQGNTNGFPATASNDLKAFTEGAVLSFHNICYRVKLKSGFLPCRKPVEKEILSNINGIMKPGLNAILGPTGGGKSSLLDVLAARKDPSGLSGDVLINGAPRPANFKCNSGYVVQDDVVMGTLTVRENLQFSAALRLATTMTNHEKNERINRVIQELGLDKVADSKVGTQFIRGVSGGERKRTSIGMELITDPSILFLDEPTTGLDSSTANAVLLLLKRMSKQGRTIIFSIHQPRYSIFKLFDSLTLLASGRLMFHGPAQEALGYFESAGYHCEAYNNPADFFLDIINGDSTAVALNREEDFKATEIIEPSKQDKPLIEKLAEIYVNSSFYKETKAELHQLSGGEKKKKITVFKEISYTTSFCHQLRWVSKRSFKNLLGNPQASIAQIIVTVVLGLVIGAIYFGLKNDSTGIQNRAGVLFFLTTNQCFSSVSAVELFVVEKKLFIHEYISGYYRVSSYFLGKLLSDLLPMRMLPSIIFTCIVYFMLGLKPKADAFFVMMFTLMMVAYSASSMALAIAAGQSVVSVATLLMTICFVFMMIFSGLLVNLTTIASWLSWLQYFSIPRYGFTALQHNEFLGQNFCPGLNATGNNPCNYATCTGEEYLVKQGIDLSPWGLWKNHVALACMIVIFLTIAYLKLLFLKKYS
P-gp, sequence (P08183 whole entry): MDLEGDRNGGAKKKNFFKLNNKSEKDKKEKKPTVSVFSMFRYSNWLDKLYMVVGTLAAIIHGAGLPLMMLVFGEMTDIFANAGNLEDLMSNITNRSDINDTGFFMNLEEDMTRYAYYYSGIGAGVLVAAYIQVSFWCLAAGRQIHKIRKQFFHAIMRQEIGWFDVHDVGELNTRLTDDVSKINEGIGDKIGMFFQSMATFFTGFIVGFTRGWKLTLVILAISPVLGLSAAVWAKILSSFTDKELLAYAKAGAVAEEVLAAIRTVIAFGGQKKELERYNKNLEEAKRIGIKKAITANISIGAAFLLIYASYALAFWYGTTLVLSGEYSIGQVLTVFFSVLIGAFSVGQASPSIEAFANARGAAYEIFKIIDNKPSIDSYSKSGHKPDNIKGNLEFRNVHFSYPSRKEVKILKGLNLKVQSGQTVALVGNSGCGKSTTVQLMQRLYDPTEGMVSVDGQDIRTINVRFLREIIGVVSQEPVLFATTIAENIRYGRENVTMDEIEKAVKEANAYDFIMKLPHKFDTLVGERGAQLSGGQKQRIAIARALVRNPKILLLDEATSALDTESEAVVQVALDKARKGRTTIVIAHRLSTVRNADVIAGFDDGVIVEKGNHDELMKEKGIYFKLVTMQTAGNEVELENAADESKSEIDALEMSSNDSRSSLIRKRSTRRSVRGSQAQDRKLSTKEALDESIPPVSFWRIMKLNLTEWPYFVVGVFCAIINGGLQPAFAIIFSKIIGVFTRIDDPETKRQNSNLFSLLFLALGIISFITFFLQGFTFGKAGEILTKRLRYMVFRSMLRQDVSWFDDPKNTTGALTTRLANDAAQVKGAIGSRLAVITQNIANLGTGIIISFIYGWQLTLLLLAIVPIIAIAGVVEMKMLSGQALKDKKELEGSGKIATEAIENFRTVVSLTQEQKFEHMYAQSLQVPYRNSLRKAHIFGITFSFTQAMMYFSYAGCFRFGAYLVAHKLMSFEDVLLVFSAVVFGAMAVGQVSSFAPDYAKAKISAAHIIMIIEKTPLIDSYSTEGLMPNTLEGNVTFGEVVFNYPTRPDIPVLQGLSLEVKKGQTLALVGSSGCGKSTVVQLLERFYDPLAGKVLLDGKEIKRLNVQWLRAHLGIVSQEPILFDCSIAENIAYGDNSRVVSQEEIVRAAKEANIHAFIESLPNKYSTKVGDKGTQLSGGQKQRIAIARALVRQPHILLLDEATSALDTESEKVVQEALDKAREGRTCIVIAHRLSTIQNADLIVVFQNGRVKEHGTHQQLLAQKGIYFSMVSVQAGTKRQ
T1 sequence (P08581 with tags, fused parts or gaps DEL964-1010 limits assumed): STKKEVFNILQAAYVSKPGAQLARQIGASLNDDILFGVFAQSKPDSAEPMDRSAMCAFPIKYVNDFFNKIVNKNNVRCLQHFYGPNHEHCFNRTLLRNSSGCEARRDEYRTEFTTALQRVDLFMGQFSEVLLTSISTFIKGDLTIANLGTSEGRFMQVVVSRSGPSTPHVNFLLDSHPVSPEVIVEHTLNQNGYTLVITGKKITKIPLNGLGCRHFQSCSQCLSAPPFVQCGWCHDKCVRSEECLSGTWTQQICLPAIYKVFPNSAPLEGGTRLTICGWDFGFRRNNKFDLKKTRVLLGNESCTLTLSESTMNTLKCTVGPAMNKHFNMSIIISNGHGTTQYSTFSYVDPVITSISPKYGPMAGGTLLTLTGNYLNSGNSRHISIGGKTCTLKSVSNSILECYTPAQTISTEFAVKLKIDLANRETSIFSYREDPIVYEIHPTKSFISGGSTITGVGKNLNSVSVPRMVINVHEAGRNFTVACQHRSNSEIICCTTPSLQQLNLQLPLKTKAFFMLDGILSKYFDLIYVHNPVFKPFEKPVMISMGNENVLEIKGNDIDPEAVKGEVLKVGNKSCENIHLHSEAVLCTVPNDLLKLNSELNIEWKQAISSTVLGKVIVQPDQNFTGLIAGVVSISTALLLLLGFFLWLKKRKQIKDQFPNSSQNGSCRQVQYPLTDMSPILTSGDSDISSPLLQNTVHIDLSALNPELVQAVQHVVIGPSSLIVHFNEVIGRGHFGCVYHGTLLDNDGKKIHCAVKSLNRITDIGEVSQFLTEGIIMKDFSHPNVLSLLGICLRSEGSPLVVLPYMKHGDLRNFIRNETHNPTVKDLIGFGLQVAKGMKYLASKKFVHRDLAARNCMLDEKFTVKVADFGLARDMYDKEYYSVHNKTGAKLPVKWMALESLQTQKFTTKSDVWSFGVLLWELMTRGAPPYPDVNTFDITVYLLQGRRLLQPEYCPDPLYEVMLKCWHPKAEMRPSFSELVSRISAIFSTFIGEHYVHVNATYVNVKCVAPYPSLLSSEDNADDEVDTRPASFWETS
T1 sequence (P08581 25-307 partner limits assumed): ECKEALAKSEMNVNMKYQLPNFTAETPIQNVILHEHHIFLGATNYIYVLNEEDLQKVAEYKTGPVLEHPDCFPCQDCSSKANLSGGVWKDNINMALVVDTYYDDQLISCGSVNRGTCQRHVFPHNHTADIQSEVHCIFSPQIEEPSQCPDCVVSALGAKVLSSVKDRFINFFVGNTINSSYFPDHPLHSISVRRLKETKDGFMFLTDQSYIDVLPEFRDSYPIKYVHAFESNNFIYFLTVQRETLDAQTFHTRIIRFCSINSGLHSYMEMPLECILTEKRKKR

As to `CNC(=O)c1cc2c(Oc3ccc(NC(=O)C4(C(=O)Nc5ccc(F)cc5)CC4)cc3)ccnc2cc1OC` [Compound 1, 1-N′-(4-Fluorophenvl)-1-N-[4-[7-methoxy-6-(methylcarbamovl)quinolin-4-yl]oxyphenyl]cyclopropane-1,1-dicarboxamide], the pIC50 on MET was 7.59; at BCRP (strong inhibitor), 6.72; against P-gp (strong inhibitor), 7.23. For the same compound, the “TGI (%)” value is 73.6% in the data set on MDA-MB-231 (3 mg/kg qd × 14 oral, p-value 0.0001) and 78.6% in the data set on MDA-MB-231 (10 mg/kg qd × 14 oral, p-value <0.0001). Besides, the substrate of transporter result on BCRP and on P-gp was “not to be a substrate” each time. For the same compound, the pEC50 in the data set with CYP2B6 (setting [2]) was 5.27; in the data set on CYP2C9 (setting [2]), 5.77. In addition, the “maximal induction effect (Emax)” value with CYP2B6 (mRNA, 0.1-100 μM) turned out to be 17 fold; with CYP2C9 (mRNA, 0.1-100 μM), 5 fold. In addition, in data set [1], the CLint is on record as 0.373 mL/min/g liver. In addition, the genotoxicity entry with bacterial was “negative”.
